Test results published in EP4781986A1, “PHARMACEUTICAL COMPOSITION HAVING IMPROVED PHARMACOKINETIC PROPERTIES” (Sichuan Purity Pharmaceutical Co., Ltd., priority 2023, dated 2025).
Like-named read-outs stand apart in the source and are kept apart here.

Tests used:
CGRP receptor complex = molecular target: T1, CGRP receptor complex (Homo sapiens, UniProt O60894+Q16602); experiment: determination of cell functional antagonism - cAMP determination; format: cell-based; conditions: inhibition of CGRP-stimulated cAMP formation in SK-N-MC cells
T1 construct: SK-N-MC (neuroepithelioma cells) from National Science and Technology Infrastructure; host or cells: SK-N-MC
T1 sequence (Q16602 23-461): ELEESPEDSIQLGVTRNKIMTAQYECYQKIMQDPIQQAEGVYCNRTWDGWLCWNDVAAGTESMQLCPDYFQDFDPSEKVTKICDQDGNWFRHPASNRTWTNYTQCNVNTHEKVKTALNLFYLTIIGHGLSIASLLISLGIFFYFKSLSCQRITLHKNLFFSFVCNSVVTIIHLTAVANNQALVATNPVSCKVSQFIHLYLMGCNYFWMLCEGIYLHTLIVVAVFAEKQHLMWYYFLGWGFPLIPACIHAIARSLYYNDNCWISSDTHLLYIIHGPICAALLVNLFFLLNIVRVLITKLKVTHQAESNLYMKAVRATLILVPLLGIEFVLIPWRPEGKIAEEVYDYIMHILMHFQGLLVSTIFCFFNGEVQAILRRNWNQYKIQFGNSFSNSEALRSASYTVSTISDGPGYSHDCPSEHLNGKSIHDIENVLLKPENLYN
T1 sequence (O60894 27-148): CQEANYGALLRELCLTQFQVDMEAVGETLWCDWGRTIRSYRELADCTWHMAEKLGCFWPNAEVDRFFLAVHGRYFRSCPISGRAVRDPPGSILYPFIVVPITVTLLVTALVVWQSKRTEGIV
Procedure: A CGRP receptor complex was coupled with Gs in G protein, the combination of CGRP and CGRP receptor complex led to Gs activation, and cAMP (3',5'-cyclic adenosine monophosphate) was produced.
The ability of the compound of the present invention to inhibit CGRP-stimulated cAMP formation in SK-N-MC cells was determined.
SK-N-MC (neuroepithelioma cells) from National Science and Technology Infrastructure - Biomedical Materials and Cell Resources.
The SK-N-MC cells were resuscitated and cultured in advance, and a cell confluence degree should be 70%-80% before use.
4.2 A sample dilution, a tested compound and α-CGRP (human) were prepared.
The SK-N-MC cells were digested, centrifuged, then resuspended with the sample dilution, and inoculated into a 384-well plate. Each well was added with the α-CGRP (human) and the tested compound respectively, and blown and mixed evenly. The well plate was adhered with a sealing film, and placed on an enzyme-labeled incubator to incubate at 25°C.
4.4 cAMP determination: carried out according to LANCE Ultra cAMP Kit specification EucAMP tracer and ULight-anti-cAMP working solutions were prepared in the dark, respectively added into the well plate, and blown and mixed evenly. The well plate was adhered with a sealing film, and placed on an enzyme-labeled incubator to incubate at 25°C.
4.5 A luminescence value was read by a chemiluminescent module of an automatic enzyme-labeled instrument.

[1] = stability test in liver microsomes (monkey); format: in vitro ADME
Procedure: (§1) The stability of the compound of the present invention in liver microsomes of rat, monkey and human was determined. Tested compounds of the present invention were the compounds in Examples 6 and 8 , and a control drug was Zavegepant.
(§2) 3.2 An appropriate amount of liver microsome solution was transferred into a 1 mL 96-deep-well plate, added with a tested drug liquid (or a probe substrate solution), and pre-incubated in a thermal mixer at 37°C for 5 minutes. Two parts of mixed solutions were taken out from the system and added with 1×PBS to replace NADPH, and the mixed solutions were taken out at 0 and 60 minutes respectively, and added with methanol (containing an internal standard) to terminate the reaction. In the remaining mixed system, each well was added with NADPH to start the reaction. In the tested substance group, mixed solutions were taken out from the system at 0, 5, 15, 30, 45 and 60 minutes, and in the control group, mixed solutions were taken out from the system at 0, 30 and 60 minutes, and the mixed solutions were added methanol (containing an internal standard) to terminate the reaction. All samples of the terminated reaction were mixed evenly and centrifuged in a centrifuge at 3800 rpm for 15 minutes, and the supernatant was taken for LC-MS/MS analysis.
(§3) A peak area was determined by an extracted ion chromatogram. A slope value k was determined by linear regression of a remaining percentage of a parent drug relative to a natural logarithm of an incubation time curve. According to the slope, in-vitro half-life periods (t1/2) were respectively calculated, and in-vitro intrinsic clearance rates (CLint, represented by µL/min/mg protein) were calculated. Calculation formulas were as follows: t1/2 = ln2/k = 0.693/k; and CLint = 0.693/t1/2 /liver microsome protein concentration [formula]

[2] = oral administration with alkyl glucoside, according to CN202180077330.9; cited from earlier work
[3] = stability test in liver microsomes (human); format: in vitro ADME; conditions: for % remaining (60 min): Human liver microsomes
Procedure: as §1, §2, §3

[4] = PK properties in SD rats with or without 0.2% alkyl glycoside (DDM); format: in vivo; conditions: for Tmax: Sprague-Dawley, rat, in vivo, inhaled or intranasal
From the text: During preparation of a test sample in the Test Example 5, a drug solution group with 0.2% dodecyl-β-D-maltoside (DDM) was also established and prepared in parallel, so as to compare and observe changes of PK properties in rats administered with the drug solution group with 0.2% dodecyl-β-D-maltoside (DDM) and the drug solution group without dodecyl-β-D-maltoside (DDM).

[5] = stability test in liver microsomes (rat); format: in vitro ADME; conditions: for % remaining (60 min): Rat liver microsomes
Procedure: as §1, §2, §3

[6] = PK properties in SD rats with different concentrations of alkyl glycoside (0.05% and 5% DDM); format: in vivo; conditions: intranasal, 5% DDM vs without DDM
From the text: During preparation of a test sample in the Test Example 7, drug solution groups with 0.05% and 5% dodecyl-β-D-maltosides (DDM) were established and prepared in parallel, so as to compare and observe changes of PK properties in rats administered with the drug solution groups with two different concentrations of dodecyl-β-D-maltosides (DDM).

Plasma of human = experiment: plasma protein binding rate test, equilibrium dialysis (human); format: in vitro ADME; conditions: 1 µM, 37°C, 6 hours
Procedure: (§4) Protein binding rates of the compound of the present invention in plasma of rat, monkey and human were determined by an equilibrium dialysis method. Tested compounds of the present invention were the compounds in Examples 6 and 8.
(§5) 3.1 A dry dialysis membrane was rinsed with ultrapure water for 2-3 times, and then soaked in a phosphate buffer for 1 hour for later use. Polytetrafluoroethylene module was soaked in 20% ethanol for 30 minutes, and then surface moisture was dried with dust-free paper for later use. The pretreated dialysis membrane was assembled into a dialysis plate according to the product specification, and one side (receptor compartment) of an osmotic membrane in each dialysis well was added with 100 µL of receptor fluid (100 mM phosphate buffer solution plus 0.002% Tween 80).
(§6) 3.2 The plasma was put into a centrifuge tube, a working solution of a tested substance was added into the plasma, wherein a final concentration was 1 µM, and the mixture was turned upside down and mixed evenly (this step was carried out in ice bath). 20 µL of drug-containing plasma each was taken, and was respectively transferred to a 96-well sample plate according to two parts in parallel, and stored in a refrigerator at -20°C as a T0 sample.
(§7) 3.3 Another 100 µL of the above drug-containing plasma was transferred to the other side (sample compartment) of the membrane in the dialysis device according to two parts in parallel, and incubated under vibration at a constant temperature of 37°C for 6 hours. […]
(§8) A plasma protein binding rate and a recovery rate of the compound in plasma were calculated by the following formulas: dissociation percentage (%) = CB /CA; [formula] plasma protein binding rate (fb%) = 1−dissociation percentage (%); [formula] recovery rate (%) = (CB+CA)/CT0 [formula] wherein CB was a concentration of the compound in the receptor fluid after equilibrium dialysis; CA was a concentration of the compound in the drug-containing plasma after equilibrium dialysis; and CT0 was an initial concentration of the compound in plasma.

Plasma of SD rat = experiment: plasma protein binding rate test, equilibrium dialysis (rat); format: in vitro ADME; conditions: 1 µM, 37°C, 6 hours
Procedure: as §4, §5, §6, §7, §8

[7] = tested on: Plasma of cynomolgus monkey; experiment: plasma protein binding rate test, equilibrium dialysis (monkey); format: in vitro ADME; conditions: 1 µM, 37°C, 6 hours
Procedure: as §4, §5, §6, §7, §8

With `[2H]C1([2H])SCc2cc(C3CCN(C(=O)N[C@H](Cc4cc(C)c5[nH]ncc5c4)C(=O)N4CCN(C5CCN(C)CC5)CC4)CC3)c(=O)[nH]c21` [Example 14, (R)-N-(3-(7-methyl-1H-indazole-5-yl)-1-(4-(1-methylpiperidine-4-yl)piperazine-1-yl)-1-oxopropan-2-yl)-4-(2-oxo-1,2,5,7-tetrahydrothieno[3,4-b]pyridine-3-yl-7,7-d2)piperidine-1-formamide] the IC50 (CGRP receptor complex) was 6.85 nM.
`Cc1cc(C[C@@H](NC(=O)N2CCC(c3cc4c([nH]c3=O)SCCC4)CC2)C(=O)N2CCC(N3CCN(C)CC3)CC2)cc2cn[nH]c12` [Example 25, (R)-N-(3-(7-methyl-1H-indazole-5-yl)-1-(4-(4-methylpiperazine-1-yl)piperidine-1-yl)-1-oxopropan-2-yl)-4-(7-oxo-3,4,7,8-tetrahydro-2H-thiopyrano[2,3-b]pyridine-6-yl)piperidine-1-formamide] gave an IC50 (CGRP receptor complex) of 0.79 nM.
With `Cc1cc(C[C@@H](NC(=O)N2CCC(c3cc4c([nH]c3=O)SCC=C4)CC2)C(=O)N2CCN(C3CCN(C)CC3)CC2)cc2cn[nH]c12` [Example 48, (R)-N-(3-(7-methyl-1H-indazole-5-yl)-1-(4-(1-methylpiperidine-4-yl)piperazine-1-yl)-1-oxopropan-2-yl)-4-(7-oxo-7,8-dihydro-2H-thiopyrano[2,3-b]pyridine-6-yl)piperidine-1-formamide] the IC50 (CGRP receptor complex) was 0.15 nM.
In the case of `Cc1cc(C[C@@H](NC(=O)N2CCC(c3cc4ccccc4[nH]c3=O)CC2)C(=O)N2CCN(C3CCN(C)CC3)CC2)cc2cn[nH]c12` [Zavegepant, zavegepant, reference compound], the “% remaining (60 min)” value ([1]; Monkey liver microsomes) is given as 72.1%, the AUC [2] is given as “no obvious changes” and the Cmax [2] is given as “no obvious changes”. For the same compound, the Tmax [2] was “prolonged to some extent”, the “% remaining (60 min)” value [3] was 57.5% and the Tmax ([4]; 0.2% DDM) was 12.5 min. The Tmax ([4]; not added with DDM (0%DDM)) was 15 min, the “Tmax(DDM 0.2%)/ Tmax(DDM 0%)” value ([4]; intranasal, 0.2% dodecyl-β-D-maltoside (DDM) vs without DDM) was 83.6% and the “% remaining (60 min)” value [5] was 95.5%. For the same compound, the “Tmax(DDM 5%)/ Tmax(DDM 0%)” value [6] was 50%.
With `[2H]C([2H])([2H])N1CCC(N2CCN(C(=O)[C@@H](Cc3cc(C)c4[nH]ncc4c3)NC(=O)N3CCC(c4cc5c([nH]c4=O)SCC5)CC3)CC2)CC1` [Example 29, (R)-N-(3-(7-methyl-1H-indazole-5-yl)-1-(4-(1-(methyl-d3)piperidine-4-yl)piperazine-1-yl)-1-oxopropan-2-yl)-4-(6-oxo-2,3,6,7-tetrahydrothieno[2,3-b]pyridine-5-yl)piperidine-1-formamide] the microsomal CLint at 1 µM ([1]; Monkey liver microsomes) was 1.6 µL/min/mg, the half-life at 1 µM ([1]; Monkey liver microsomes 0.5 mg/mL, 1.0 µM) was over 120 min and the “% remaining (60 min)” value ([1]; Monkey liver microsomes) was 98.9%. For the same compound, the “fb (%)” value (Plasma of human) was 50.2%, the half-life at 1 µM ([3]; Human liver microsomes 0.5 mg/mL, 1.0 µM) was over 120 min and the “% remaining (60 min)” value [3] was 115%. The half-life at 1 µM ([5]; Rat liver microsomes 0.5 mg/mL, 1.0 µM) was over 120 min, the “% remaining (60 min)” value [5] was 105% and the “fb (%)” value (Plasma of SD rat) was 64.3%. For the same compound, the “fb (%)” value [7] was 56.1%.
With `Cc1cc(C[C@@H](NC(=O)C2CCN(c3cc4c([nH]c3=O)SCCC4)CC2)C(=O)N2CCN(C3CCN(C)CC3)CC2)cc2cn[nH]c12` [Example 21, (R)-N-(3-(7-methyl-1H-indazole-5-yl)-1-(4-(1-methylpiperidine-4-yl)piperazine-1-yl)-1-oxopropan-2-yl)-1-(7-oxo-3,4,7,8-tetrahydro-2H-thiopyrano[2,3-b]pyridine-6-yl)piperidine-4-formamide] the IC50 (CGRP receptor complex) was 590 nM.
`Cc1cc(C[C@@H](NC(=O)N2CCC(c3cc4c([nH]c3=O)CCCS4)CC2)C(=O)N2CCN(C3CCN(C)CC3)CC2)cc2cn[nH]c12` [Example 12, (R)-N-(3-(7-methyl-1H-indazole-5-yl)-1-(4-(1-methylpiperidine-4-yl)piperazine-1-yl)-1-oxopropan-2-yl)-4-(6-oxo-3,4,5,6-tetrahydro-2H-thiopyrano[3,2-b]pyridine-7-yl)piperidine-1-formamide] gave an IC50 (CGRP receptor complex) of 16.9 nM.
In the case of `Cc1cc(C[C@@H](NC(=O)N2CCC(c3cc4c([nH]c3=O)CCSC4)CC2)C(=O)N2CCN(C3CCN(C)CC3)CC2)cc2cn[nH]c12` [Example 15, (R)-N-(3-(7-methyl-1H-indazole-5-yl)-1-(4-(1-methylpiperidine-4-yl)piperazine-1-yl)-1-oxopropan-2-yl)-4-(2-oxo-1,5,7,8-tetrahydro-2H-thiopyrano[4,3-b]pyridine-3-yl)piperidine-1-formamide], the IC50 (CGRP receptor complex) is reported as 10.1 nM.
`Cc1cc(C[C@@H](NC(=O)N2CCC(c3cc4c([nH]c3=O)C3CCC4C3)CC2)C(=O)N2CCN(C3CCN(C)CC3)CC2)cc2cn[nH]c12` (stereo partly drawn) [Example 45, N-((R)-3-(7-methyl-1H-indazole-5-yl)-1-(4-(1-methylpiperidine-4-yl)piperazine-1-yl)-1-oxopropan-2-yl)-4-(2-oxo-1,2,5,6,7,8-hexahydro-5,8-methanoquinoline-3-yl)piperidine-1-formamide] showed an IC50 (CGRP receptor complex) of 26 nM.
For `Cc1cc(C[C@@H](NC(=O)N2CCC(c3cc4c([nH]c3=O)SCC4)CC2)C(=O)N2C3CCC2CC(N2CCCCC2)C3)cc2cn[nH]c12` (stereo partly drawn) [Example 34, N-((2R)-3-(7-methyl-1H-indazole-5-yl)-1-oxo-1-(3-(piperidine-1-yl)-8-azabicyclo[3.2.1]octane-8-yl)propan-2-yl)-4-(6-oxo-2,3,6,7-tetrahydrothieno[2,3-b]pyridine-5-yl)piperidine-1-formamide], the IC50 (CGRP receptor complex) was 0.2 nM.
